According to patent US8298991B2, “Method for controlling undesired mimosoideae vegetation” (E I du Pont de Nemours and Company, priority 2008, dated 2012):

Key:
[1] = system: huisache (Acacia farnesiana); experiment: Test A: field study, control of a natural stand of huisache; type: in vivo; details: for % Defoliation 62 DAA: 62 days after application, vs control plot, foliar spray with 1% methylated seed oil, g ai/ha: Compound 1 250, fosamine-ammonium 6688, imazapyr (a.e.) 280, metsulfuron-methyl 42, alone or combined; for % Control 229 DAA: 229 days after application; for % Control 229 DAA / % Control 543 DAA / % Control 656 DAA / % Control 745 DAA: % of trees with no green foliage or regrowth, g ai/ha: Compound 1 250, fosamine-ammonium 6688, imazapyr 280, metsulfuron-methyl 42; for % Control 543 DAA: 543 days after application; for % Control 656 DAA: 656 days after application; for % Control 745 DAA: 745 days after application
Procedure: A field study was conducted to evaluate the efficacy of 250 g/ha of Compound 1, 6.7 kg/ha of fosamine-ammonium (i.e. ammonium salt of fosamine), 280 g/ha of imazapyr (provided in the form of the isopropylammonium salt of imazapyr) and 42 g/ha of metsulfuron-methyl, separately and in combination, for controlling a natural stand of huisache (Acacia farnesiana) on a ranch in southeastern Texas. Compound 1 was in the form of a wettable granule formulation containing 80% by weight of Compound 1. Fosamine-ammonium was provided by KRENITE® S, which is a water-soluble liquid formulation containing 41.5% of fosamine-ammonium. Imazapyr was provided by ARSENAL®, which is a water-soluble liquid formulation containing 28.7% of imazapyr-isopropylammonium (equivalent to 22.6% of imazapyr, i.e. imazapyr acid equivalent). Metsulfuron-methyl was provided by ESCORT® XP, which is a wettable granule formulation containing 60% of metsulfuron-methyl.
The trial design was a large block, single replicate field study using rectangular test plots measuring 12.8 m by 22.9 m. The huisache trees in the test plots averaged 2.4 m tall and were estimated to be approximately 20 years old. The formulated herbicides were diluted with water and 1% by volume of methylated seed oil was added to provide about 27.4 L of spray mixture. The treatments were applied in early autumn using a high-volume handgun sprayer projecting the spray mixture upward and across a plot in a slow back and forth motion while traversing the plot lengthwise. This produced a rainfall-like spray covering both the huisache trees and ground between trees in the plots. The volume of spray mixture used (corresponding to 935 L/ha) was sufficient to thoroughly wet the foliage of the huisache trees with relatively little drip or run off under the trees.
The effects of the herbicide treatments were visually evaluated. At 62 days after application (DAA), the percentage of defoliation in comparison to a control plot was observed. Then at 229, 543, 656 and 745 days after application % control was calculated based on the percentage of trees showing no green foliage or regrowth.

[2] = system: honey mesquite (Prosopis glandulosa); experiment: Test B: field study, control of natural stands of honey mesquite; type: in vivo; details: for % Control Site 1 Observed: Site 1, 12 months after application, 94 L/ha; for % Control Site 1 Observed / % Control Site 2 Observed: % dead trees, g ai/ha: Compound 1 125, triclopyr (a.e., as butotyl ester) 280; for % Control Site 2 Observed: Site 2, 10 months after application, 140 L/ha
Procedure: A field study was conducted to evaluate the efficacy of 125 g/ha of Compound 1 and 280 g/ha of triclopyr (in the form of the butoxyethyl ester of triclopyr, i.e. triclopyr-butotyl), separately and in combination, for controlling natural stands of honey mesquite (Prosopis glandulosa) on ranches in western Texas. Compound 1 was in the form of an 80% wettable granule formulation. Triclopyr was provided by GARLON® 4 or REMEDY®, which are emulsifiable concentrate formulations containing 44.3% or 61.6% of triclopyr-butotyl, respectively.
The trial design was a large block, single replicate test. Each test used rectangular test plots measuring 3 m by 9 m and incorporating at least 10 mesquite plants per plot. The formulated herbicides were diluted with water, and 1% by volume of methylated seed oil was added, to provide volumes of spray mixtures corresponding to a rate of 94 L/ha at Site 1 and 140 L/ha at Site 2. The treatments were applied using flat fan nozzles on an elevated spray boom moved across the plots by an all-terrain vehicle or small tractor. The elevated spray boom and relatively low spray volumes simulated aerial (e.g., helicopter or fixed wing aircraft) applications.
In each plot 10 mesquite trees were identified with a metal tag for evaluation. The effects of the herbicide treatments were evaluated 12 months after application at Site 1 and 10 months after application at Site 2. Visual evaluations were used to rate the herbicidal effect of the various treatments. A tree was considered alive if any foliage was present within the tree canopy area or if any new growth (i.e. sprouts) emerged from the base of the tree.
Expected results were calculated using the Colby Equation. Colby's equation (S. R. Colby, “Calculating Synergistic and Antagonistic Responses of Herbicide Combinations,” Weeds, 15(1), pp 20-22 (1967)) calculates the expected additive effect of herbicidal mixtures, and for two active ingredients is of the form: Pa+b=Pa+Pb−(PaPb/100) wherein • Pa+b is the percentage effect of the mixture expected from additive contribution of the individual components, • Pa is the observed percentage effect of the first active ingredient at the same use rate as in the mixture, and • Pb is the observed percentage effect of the second active ingredient at the same use rate as in the mixture.

COC(=O)c1ccccc1S(=O)(=O)NC(=O)Nc1nc(C)nc(OC)n1 [Metsulfuron-methyl, methyl 2-[[[[(4-methoxy-6-methyl-1,3,5-triazin-2-yl)amino]carbonyl]amino]sulfonyl]benzoate]
% Defoliation 62 DAA [1]: 85%
% Control 229 DAA [1]: 11%
% Control 543 DAA [1]: 0%
% Control 656 DAA [1]: 0%
% Control 745 DAA [1]: 0%

O=C(O)COc1nc(Cl)c(Cl)cc1Cl [Triclopyr, [(3,5,6-trichloro-2-pyridyl)oxy]acetic acid]
% Control Site 1 Observed [2]: 0%
% Control Site 2 Observed [2]: 30%

CC(C)C1(C)N=C(c2ncccc2C(=O)O)NC1=O (racemic) [Imazapyr, (±)-2-[4,5-dihydro-4-methyl-4-(1-methylethyl)-5-oxo-1H-imidazol-2-yl]-3-pyridinecarboxylic acid]
% Defoliation 62 DAA [1]: 70%
% Control 229 DAA [1]: 9%
% Control 543 DAA [1]: 0%
% Control 656 DAA [1]: 0%
% Control 745 DAA [1]: 0%

COC(=O)c1nc(C2CC2)nc(N)c1Cl [Compound 1, methyl 6-amino-5-chloro-2-cyclopropyl-4-pyrimidine-carboxylate]
% Defoliation 62 DAA [1]: 100%
% Control 229 DAA [1]: 91%
% Control 745 DAA [1]: 33%
% Control Site 1 Observed [2]: 60%
% Control Site 2 Observed [2]: 60%
long-term control of honey mesquite (text summary over Sites 1 and 2) ([2]; both sites, Compound 1 125 g/ha, triclopyr 280 g/ha): 60%

CCOP(=O)(O)C(N)=O [Fosamine, ethyl hydrogen (aminocarbonyl)phosphonate]
% Defoliation 62 DAA [1]: 75%
% Control 229 DAA [1]: 0%
% Control 543 DAA [1]: 0%
% Control 656 DAA [1]: 0%
% Control 745 DAA [1]: 0%
